# Results from patent publication US11297861B2, “Sweet protein from truffle” (MycoTechnology, Inc., priority 2020, dated 2022).
# System: sweet taste
# Experiment: CATA time intensity of the sweet sensation, trained panel
# Format: in vivo, human
# Conditions: 10% sucrose in water
# Protocol: Evaluation of thaumatin, sucrose, and SEQ ID NO:21 was carried out using a CATA (click all that apply) time intensity of the sweet sensation of named analytes in water at 0.045 mg/ml for proteins and 10% sucrose. Methodology: Time Intensity Technique; Data collection software: EyeQuestion, responses recorded every 2.57 seconds; Scaling Method: a 15-point sweet scale, e.g. score 5=5% sucrose, score 10=10% sucrose; Evaluation Protocol: small volume sip, tilt and spit test. There were 3-6 panelists and 2 replicates. All samples were blinded and presented with randomized 3-digit codes. Training Strategies: An intense training on sweet scale over 6 weeks on 15-point sweet scale to confidently assign sweet values. Due to unique sweet behavioral patterns, it is necessary to train time intensity principles over 3 weeks. Samples were tasted with a stopwatch to note times and help reach a consensus. # of Panelists: 3-6, # of replications: 2. All samples were blinded and presented with randomized 3-digit codes. Statistical analysis: due to the small # of panelists, a statistical analysis cannot be performed.
smiles,measurement,value
"OC[C@H]1O[C@@](CO)(O[C@H]2O[C@H](CO)[C@@H](O)[C@H](O)[C@H]2O)[C@@H](O)[C@@H]1O [SUC, sucrose]",time to threshold sweetness (Intensity <1),162 s
